Measured values as given in patent US20250129078A1, “ERBB2 INHIBITORS” (Cogent Biosciences, Inc., priority 2023, published 2025).

Assays:
[1] = biological target: ErbB2 V777L (Homo sapiens (Human), UniProt P04626, V777L); experiment: ErbB enzyme assay (CisBio HTRF-KinEASE-TK), ErbB2 V777L; format: biochemical
In short: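 HTRF KinEASE-TK tyrosine-kinase read-out of substrate phosphorylation after a final 1 h at ambient temperature, from the 655/620 nm emission ratio.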

[2] = biological target: EGFR WT (Homo sapiens (Human), UniProt P00533); experiment: ErbB enzyme assay (CisBio HTRF-KinEASE-TK), EGFR WT; format: biochemical; settings: ATP at Km (25 μM), 1 h incubation
EGFR WT, sequence (P00533 25-1210): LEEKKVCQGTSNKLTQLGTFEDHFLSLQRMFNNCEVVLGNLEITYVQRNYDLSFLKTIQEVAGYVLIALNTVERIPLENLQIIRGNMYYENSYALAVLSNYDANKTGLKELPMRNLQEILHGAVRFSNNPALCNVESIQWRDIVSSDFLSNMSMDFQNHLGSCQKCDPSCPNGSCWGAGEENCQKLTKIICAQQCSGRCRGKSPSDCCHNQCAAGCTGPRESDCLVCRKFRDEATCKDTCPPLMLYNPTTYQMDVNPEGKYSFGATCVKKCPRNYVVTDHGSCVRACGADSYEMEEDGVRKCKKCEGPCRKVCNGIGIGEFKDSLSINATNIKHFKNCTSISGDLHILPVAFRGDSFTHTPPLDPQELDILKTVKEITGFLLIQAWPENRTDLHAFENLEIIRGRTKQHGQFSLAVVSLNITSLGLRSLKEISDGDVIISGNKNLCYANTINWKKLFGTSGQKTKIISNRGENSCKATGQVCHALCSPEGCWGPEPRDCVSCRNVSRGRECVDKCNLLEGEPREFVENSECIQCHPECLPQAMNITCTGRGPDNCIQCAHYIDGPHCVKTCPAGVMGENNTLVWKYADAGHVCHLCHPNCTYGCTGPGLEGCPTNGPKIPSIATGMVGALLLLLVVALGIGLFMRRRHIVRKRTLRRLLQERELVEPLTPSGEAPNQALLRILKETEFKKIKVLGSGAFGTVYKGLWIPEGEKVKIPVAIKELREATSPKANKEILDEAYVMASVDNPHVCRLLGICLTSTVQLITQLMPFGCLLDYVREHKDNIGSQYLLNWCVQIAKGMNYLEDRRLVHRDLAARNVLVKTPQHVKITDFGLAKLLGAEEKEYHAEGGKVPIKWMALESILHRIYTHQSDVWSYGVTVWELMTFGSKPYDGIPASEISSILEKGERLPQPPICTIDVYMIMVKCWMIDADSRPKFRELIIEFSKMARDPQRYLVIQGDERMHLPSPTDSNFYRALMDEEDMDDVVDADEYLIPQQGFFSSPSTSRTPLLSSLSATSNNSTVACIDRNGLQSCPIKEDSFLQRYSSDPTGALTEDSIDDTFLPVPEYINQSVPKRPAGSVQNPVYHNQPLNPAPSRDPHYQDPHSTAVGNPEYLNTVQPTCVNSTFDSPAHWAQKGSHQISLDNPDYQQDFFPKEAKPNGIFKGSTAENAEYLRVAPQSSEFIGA
In short: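 Tyrosine kinase HTRF, 1 h RT reaction → quench (Sa-XL665/TK-Ab-Cryptate) → 1 h RT → 655/620 ratio.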

[3] = Blood brain barrier penetration assay in CD-1 mice (short oral absorption model, Kpuu brain); format: in vivo; settings: mouse, brain and plasma, male CD-1 mice, 1 h post-dose, Kpuu brain = conc (brain)/conc (plasma) x (fu brain/fu plasma)
Protocol: In vitro plasma and brain binding assays were carried out using the equilibrium dialysis method. EDTA-anticoagulated plasma and diluted brain homogenate (1:3 with DPBS pH 7.4) were spiked with 2 μM test compound and dialyzed against an equal volume of 100 μL 100 mM sodium phosphate buffer (pH 7.4) at 37° C. for 4 h in a slowly rotated plate. At the end of the dialysis 50 μL aliquots from the buffer side and matrix side of the dialysis device were taken into new 96-well plates. An equal volume of opposite blank matrix (buffer or matrix) in each sample was added to reach a final volume of 100 μL. All samples were processed by protein precipitation for LC/MS/MS analysis. Unbound fraction (fu) of test compound was calculated by the ratio of buffer side response to the brain homogenate/plasma side response, and unbound fraction (fu,pl and fu,br) of test compound in non-diluted plasma and brain tissue were calculated from measured fu in homogenate and plasma with the following equation: fu,pl or fu,br=1/D/((1/(F/T)-1)+1/D). F is the free compound concentration as determined by the calculated concentration on the buffer side of the membrane and T is the total compound concentration as determined by the calculated concentration on the matrix side of the membrane. D is the dilution factor (D equals 1 for plasma, and 4 for brain).
A short oral absorption model is an in-vivo screening model to identify brain penetration of a compound. Three male CD-1 mice were orally dosed with an appropriate vehicle. At the 1 h timepoint post-dose, blood samples were collected via cardiac puncture, placed into EDTA anti-coagulated tubes, and spiked with 1% 1 mM quinidine (aq). The samples were placed on wet ice until centrifugation at 4000×g for 10 min. Brain tissue was rinsed with saline and the liquid was drained. The brains were weighed and transferred to tubes for homogenization. Each tube contained 1 g tissue, 9 mL buffer (1:2 v/v MeOH:15 mM PBS), and a spike of 1% 1 mM quinidine (aq). All samples were stored at −80° C. prior to LC/MS/MS analysis. Standards were prepared by spiking blank plasma and brain homogenate. Aliquots (10 μL) of sample, calibration standard, quality control, dilution quality control, single blank, and double blank were added to the 96-well plate respectively. Homogenized brain tissue along with plasma samples were precipitated by adding 190 μL cold MeCN containing internal standard (the double blank sample was quenched with 190 L MeCN). The mixture was vortex-mixed for 5 min at 1000 rpm and centrifuged for 10 min at 3220×g, 4° C. […] The free fraction of test compound in biological matrix was determined by using in vitro plasma and brain tissue free fraction. Kpuu brain was calculated by the equation: Kpuu brain=cone (brain)/conc (plasma)×(fu brain/fu plasma).

ErbB2 V777L, sequence (P04626 23-1255 V777L): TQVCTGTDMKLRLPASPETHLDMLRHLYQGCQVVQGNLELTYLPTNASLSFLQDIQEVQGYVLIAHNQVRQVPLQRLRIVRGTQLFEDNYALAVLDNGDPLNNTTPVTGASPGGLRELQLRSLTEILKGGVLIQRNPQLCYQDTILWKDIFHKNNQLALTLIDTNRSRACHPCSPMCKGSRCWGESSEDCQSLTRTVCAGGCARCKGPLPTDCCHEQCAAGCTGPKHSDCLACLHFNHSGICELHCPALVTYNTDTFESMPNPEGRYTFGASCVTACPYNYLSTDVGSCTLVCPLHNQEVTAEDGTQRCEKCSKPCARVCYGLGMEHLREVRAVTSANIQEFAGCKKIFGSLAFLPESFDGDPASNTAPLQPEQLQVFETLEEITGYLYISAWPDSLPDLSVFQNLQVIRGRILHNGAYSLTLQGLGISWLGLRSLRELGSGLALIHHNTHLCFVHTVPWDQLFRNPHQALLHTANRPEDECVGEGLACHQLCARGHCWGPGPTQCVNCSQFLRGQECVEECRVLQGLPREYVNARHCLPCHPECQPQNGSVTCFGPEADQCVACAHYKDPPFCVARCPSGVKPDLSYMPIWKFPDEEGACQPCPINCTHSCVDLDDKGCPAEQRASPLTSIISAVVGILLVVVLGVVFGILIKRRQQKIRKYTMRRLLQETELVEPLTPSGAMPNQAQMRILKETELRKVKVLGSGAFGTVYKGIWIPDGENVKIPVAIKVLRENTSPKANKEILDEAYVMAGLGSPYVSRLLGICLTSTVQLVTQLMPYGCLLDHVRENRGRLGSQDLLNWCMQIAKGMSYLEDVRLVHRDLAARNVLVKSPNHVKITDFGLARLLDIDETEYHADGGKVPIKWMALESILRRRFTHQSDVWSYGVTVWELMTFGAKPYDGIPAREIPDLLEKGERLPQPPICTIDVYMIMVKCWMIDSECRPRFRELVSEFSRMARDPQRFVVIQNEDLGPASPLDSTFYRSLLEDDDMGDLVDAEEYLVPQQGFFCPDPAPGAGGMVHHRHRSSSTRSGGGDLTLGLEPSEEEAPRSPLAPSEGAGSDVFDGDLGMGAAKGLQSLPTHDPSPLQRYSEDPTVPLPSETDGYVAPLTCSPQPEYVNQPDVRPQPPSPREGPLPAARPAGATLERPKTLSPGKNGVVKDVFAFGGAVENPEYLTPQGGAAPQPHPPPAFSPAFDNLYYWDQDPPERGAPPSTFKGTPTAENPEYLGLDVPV

| IC50 [1] | IC50 [2] | Kp uu at 1 h [3] | Structure (SMILES) |
| --- | --- | --- | --- |
| < 50 nM | < 50 nM | 0.12 | C=CC(=O)N1CCN(c2ncc3ncnc(Nc4ccc(Oc5cc(F)c6c(c5)ncn6C)c(C)c4)c3n2)CC1 [Compound 64, 1-(4-(8-((4-((7-fluoro-1-methyl-1H-benzo[d]imidazol-5-yl)oxy)-3-methylphenyl)amino)pyrimido[5,4-d]pyrimidin-2-yl)piperazin-1-yl)prop-2-en-1-one] |
|  | 100 to 500 nM | 0.04 | C=CC(=O)N1CCN(c2ncc3ncnc(Nc4ccc(Oc5cnc6c(c5)ncn6C)c(C)c4)c3n2)CC1 [Compound 235, 1-(4-(8-((3-methyl-4-((3-methyl-3H-imidazo[4,5-b]pyridin-6-yl)oxy)phenyl)amino)pyrimido[5,4-d]pyrimidin-2-yl)piperazin-1-yl)prop-2-en-1-one] |
